Test results published in patent US10927111B2, “Inhibitors of RAF kinases” (Kinnate Biopharma Inc., priority 2019, dated 2021).
Like-named read-outs stand apart in the source and are kept apart here.

Biological target: human RAF1 (Homo sapiens (Human), UniProt P04049)
Test: Protein kinase assay (radiometric 33P-ATP, MEK1 (K97R) substrate)
Format: biochemical
Conditions: read-out: RAF-1 IC50
Experimental: Protein kinase assay: Assay platform was used to measure kinase/inhibitor interactions as described previously (Anastassiadis et al., 2011). In brief, for each reaction, kinase and substrate were mixed in a buffer containing 20 mM HEPES (pH 7.5), 10 mM MgCl2, 1 mM EGTA, 0.02% Brij35, 0.02 mg/mL BSA, 0.1 mM Na3VO4, 2 mM DTT, and 1% DMSO. All compounds were solubilized in DMSO. Compounds were then added to each reaction mixture via acoustic dispense using an ECHO 550 nanoliter dispenser. For human RAF1 testing, human MEK1 (K97R) was used as a substrate at a concentration of 3 micromolar, with a final ATP concentration of 10 micromolar. For human BRAF testing, human MEK1 (K97R) was used as a substrate at 1 micromolar concentration, with a final ATP concentration of 25 micromolar. […] After a 20-min incubation, ATP (Sigma-Aldrich, St. Louis, Mo. 63178) and [g33P] ATP (specific activity 10 microCi/microliter) purchased at PerkinElmer (Boston, Mass., 02118 Cat #BLU 003H250UC) were added at a final total concentration of 10 mM. Reactions were carried out at room temperature for 2 hr and spotted onto P81 ionexchange cellulose chromatography paper (Reaction Biology). Filter paper was washed in 0.75% phosphoric acid to remove unincorporated ATP. The percent remaining kinase activity relative to a vehicle-containing (DMSO) kinase reaction was calculated for each kinase/inhibitor pair. IC50 values were calculated using Prism 5 (GraphPad).

[1] = human MEK1 (K97R) substrate 3 micromolar, ATP 10 micromolar, 10-dose IC50 mode

human RAF1, sequence (P04049 whole entry): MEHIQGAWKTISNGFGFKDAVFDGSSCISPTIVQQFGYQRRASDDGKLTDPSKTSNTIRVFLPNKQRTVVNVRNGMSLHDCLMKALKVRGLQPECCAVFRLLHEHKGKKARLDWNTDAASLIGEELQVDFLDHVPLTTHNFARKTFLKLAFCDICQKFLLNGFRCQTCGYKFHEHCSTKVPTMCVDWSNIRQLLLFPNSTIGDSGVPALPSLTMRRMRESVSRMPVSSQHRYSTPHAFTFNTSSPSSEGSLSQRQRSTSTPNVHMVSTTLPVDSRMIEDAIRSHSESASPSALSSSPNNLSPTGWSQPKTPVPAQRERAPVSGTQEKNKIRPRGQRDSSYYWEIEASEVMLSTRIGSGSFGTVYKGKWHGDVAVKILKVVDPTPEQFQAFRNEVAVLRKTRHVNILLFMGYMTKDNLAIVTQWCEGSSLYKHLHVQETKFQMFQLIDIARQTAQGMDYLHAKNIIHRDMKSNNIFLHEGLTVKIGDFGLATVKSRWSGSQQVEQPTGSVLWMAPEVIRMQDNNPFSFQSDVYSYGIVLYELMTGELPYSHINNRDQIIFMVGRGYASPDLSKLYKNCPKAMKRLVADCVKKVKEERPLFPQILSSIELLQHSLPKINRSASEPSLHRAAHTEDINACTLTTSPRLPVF

IC50 [1] [nM]	IC50 [nM]	SMILES
≤ 10	–	CNc1ncc2cc(-c3cc(NC(=O)N4CC[C@@H](OC(F)(F)F)C4)c(F)cc3C)cnc2n1 [Example 60, (3R)-N-[2-fluoro-4-methyl-5-[2-(methylamino)pyrido[2,3-d]pyrimidin-6-yl]phenyl]-3-(trifluoromethoxy)pyrrolidine-1-carboxamide]
≤ 10	–	CNc1ncc2cc(-c3cc(NC(=O)N4CCO[C@H](C(F)(F)F)C4)c(F)cc3C)cnc2n1 [Example 61, (2S)-N-[2-fluoro-4-methyl-5-[2-(methylamino)pyrido[2,3-d]pyrimidin-6-yl]phenyl]-2-(trifluoromethyl)morpholine-4-carboxamide]
≤ 10	–	CNc1ncc2cc(-c3cc(NC(=O)N4CCO[C@@H](C(F)(F)F)C4)c(F)cc3C)cnc2n1 [Example 62, (2R)-N-[2-fluoro-4-methyl-5-[2-(methylamino)pyrido[2,3-d]pyrimidin-6-yl]phenyl]-2-(trifluoromethyl)morpholine-4-carboxamide]
≤ 10	–	CNc1ncc2cc(-c3cc(NC(=O)N4CC[C@H](OC(F)(F)F)C4)cnc3C)cnc2n1 [Example 63, (3S)-N/-[6-methyl-5-[2-(methylamino)pyrido[2,3-d]pyrimidin-6-yl]pyridin-3-yl]-3-(trifluoromethoxy)pyrrolidine-1-carboxamide]
≤ 10	–	CNc1ncc2cc(-c3cc(NC(=O)c4ccnc(C(F)(F)F)c4)ccc3C)c(Cl)nc2n1 [Example 64, N-[3-[7-chloro-2-(methylamino)pyrido[2,3-d]pyrimidin-6-yl]-4-methylphenyl]-2-(trifluoromethyl) pyridine-4-carboxamide]
≤ 10	–	C=Cc1nc2nc(NC)ncc2cc1-c1cc(NC(=O)c2ccnc(C(F)(F)F)c2)ccc1C [Example 65, N-[3-[7-ethenyl-2-(methylamino)pyrido[2,3-d]pyrimidin-6-yl]-4-methylphenyl]-2-(trifluoromethyl)pyridine-4-carboxamide]
–	≤ 10	CNc1ncc2cc(-c3cc(NC(=O)c4ccnc(C(F)(F)F)c4)ccc3C)c(OC)nc2n1 [Example 68, N-[3-[7-methoxy-2-(methylamino)pyrido[2,3-d]pyrimidin-6-yl]-4-methylphenyl]-2-(trifluoromethyl)pyridine-4-carboxamide]
≤ 10	–	CCOc1nc2nc(NC)ncc2cc1-c1cc(NC(=O)c2ccnc(C(F)(F)F)c2)ccc1C [Example 69, N-[3-[7-ethoxy-2-(methylamino)pyrido[2,3-d]pyrimidin-6-yl]-4-methylphenyl]-2-(trifluoromethyl)pyridine-4-carboxamide]
≤ 10	–	CNc1ncc2cc(-c3cc(NC(=O)c4ccnc(C(F)(F)F)c4)ccc3C)c(OCCO)nc2n1 [Example 70, N-[3-[7-(2-hydroxyethoxy)-2-(methylamino)pyrido[2,3-d]pyrimidin-6-yl]-4-methylphenyl]-2-(trifluoromethyl)pyridine-4-carboxamide]
–	≤ 10	[2H]C([2H])([2H])Oc1nc2nc(NC)ncc2cc1-c1cc(NC(=O)c2ccnc(C(F)(F)F)c2)ccc1C [Example 71, N-(3-(7-(methoxy-d3)-2-(methylamino)pyrido[2,3-d]pyrimidin-6-yl)-4-methylphenyl)-2-(trifluoromethyl)isonicotinamide]
≤ 10	–	CNc1ncc2cc(-c3cc(NC(=O)c4ccnc(C(F)(F)F)c4)ccc3C)c(C#N)nc2n1 [Example 72, N-[3-[7-cyano-2-(methylamino)pyrido[2,3-d]pyrimidin-6-yl]-4-methylphenyl]-2-(trifluoromethyl)pyridine-4-carboxamide]
≤ 10	–	CNc1ncc2cc(-c3cc(NC(=O)c4ccnc(C(F)(F)F)c4)ccc3C)c(C(F)(F)F)nc2n1 [Example 73, N-[4-methyl-3-[2-(methylamino)-7-(trifluoromethyl)pyrido[2,3-d]pyrimidin-6-yl]phenyl]-2-(trifluoromethyl)pyridine-4-carboxamide]
–	≤ 10	[2H]C([2H])([2H])c1nc2nc(NC)ncc2cc1-c1cc(NC(=O)c2ccnc(C(F)(F)F)c2)ccc1C [Example 74, N-(4-methyl-3-(7-(methyl-d3)-2-(methylamino)pyrido[2,3-d]pyrimidin-6-yl)phenyl)-2-(trifluoromethyl)isonicotinamide]
–	≤ 10	[2H]C([2H])([2H])Nc1ncc2cc(-c3cc(NC(=O)c4ccnc(C(F)(F)F)c4)ccc3C)c(C([2H])([2H])[2H])nc2n1 [Example 75, N-(4-methyl-3-(7-(methyl-d3)-2-((methyl-d3)amino)pyrido[2,3-d]pyrimidin-6-yl)phenyl)-2-(trifluoromethyl)isonicotinamide]
≤ 10	–	CNc1ncc2cc(-c3cc(NC(=O)c4cc[n+]([O-])c(C(F)(F)F)c4)ccc3C)c(C)nc2n1 [Example 76, 4-([4-methyl-3-[7-methyl-2-(methylamino)pyrido[2,3-d]pyrimidin-6-yl]phenyl]carbamoyl)-2-(trifluoromethyl)pyridin-1-ium-1-olate]
≤ 10	–	CNc1ncc2cc(-c3cc(NC(=O)N4CC[C@@H](CC(F)(F)F)C4)ccc3C)c(C#N)nc2n1 [Example 77, (3S)—N-[3-[7-cyano-2-(methylamino)pyrido[2,3-d]pyrimidin-6-yl]-4-methylphenyl]-3-(2,2,2-trifluoroethyl)pyrrolidine-1-carboxamide]
≤ 10	–	CNc1ncc2cc(-c3cc(NC(=O)N4CC[C@@H](OC(F)(F)F)C4)ccc3C)c(C#N)nc2n1 [Example 78, (3R)—N-[3-[7-cyano-2-(methylamino)pyrido[2,3-d]pyrimidin-6-yl]-4-methylphenyl]-3-(trifluoromethoxy)pyrrolidine-1-carboxamide]
≤ 10	–	CNc1ncc2cc(-c3cc(NC(=O)N4CC[C@H](OC(F)(F)F)C4)ccc3C)c(C#N)nc2n1 [Example 79]
